Measurements from patent publication US20120010075A1 (priority 2009, published 2012).
Read-outs that look alike come from different tables or passages of the source.

Key:
[1] = test system: Leptosphaeria nodorum (LEPTNO); experiment: In vitro fungitoxicity of hydrazones with and without copper towards Leptosphaeria nodorum (Example 26); type: cell-based; settings: 72 h at 25° C.; for inhibition of growth at 0.05 µg/mL: Parastagonospora nodorum, 72 h, copper-minus medium, read-out: LEPTNO % Inhn. Minus Copper Observed
Phytophthora infestans = type: in vivo, Phytophthora infestans on tomato; settings: applied 24 h before inoculation, assessed 7 days after inoculation
[2] = compound 0.05 μg/mL, copper-plus medium (CuCl2.2H2O)
[3] = hydrazone 50 ppm + 50 μM CuCl2.2H2O, tomato
[4] = test compound Concn. 0.05 μg/mL
[5] = copper-plus medium (CuCl2 10 μM), test compound Concn. 0.05 μg/mL
[6] = hydrazone 50 ppm with 50 μM CuCl2.2H2O, tomato late blight

Row | SMILES | melting point [°C] | inhibition of growth at 0.05 µg/mL ([1]; compound 0.05 μg/mL) [%] | LEPTNO % Inhn. Plus Copper Observed [1, 2] [%] | TLB % Control (Phytophthora infestans; [3]) [%] | inhibition of growth at 0.05 µg/mL [1, 4] [%] | LEPTNO % Inhn. Plus Copper Observed [1, 5] [%] | TLB % Control (Phytophthora infestans; [6]) [%]
1 | CNc1ccc(C(=O)N/N=C/c2cc(Cl)cc(Cl)c2O)cc1 [Example 259] | 245 to 253 | 9.9 | 97.9 | 32.0 |  |  | 
2 | COc1ccc(O)c(/C(C)=N/NC(=O)c2ccc(C)cc2)c1 [Example 264] | 159 to 162 | 6 | 98.4 | 21.0 |  |  | 
3 | CCOc1cccc(C(=O)N/N=C/c2cc(Cl)cc(Cl)c2O)c1 [Example 86] | 207 to 209 | 0.3 | 97.6 | 80.7 |  |  | 
4 | C/C(=N\NC(=O)c1cc(Cl)ccc1O)c1cc(Cl)cc(Cl)c1O [Example 490] | 322 to 325 |  |  |  | 31.5 | 97.0 | 55.0
5 | C/C(=N\NC(=O)c1ccccc1Br)c1cc(Br)cc(Br)c1O [Example 549] | 214 to 216 |  |  |  | 0 | 97.3 | 94.0
6 | O=C(N/N=C(/c1cc(Cl)cc(Cl)c1O)C(F)(F)F)c1ccccc1 [Example 587] | 195 to 196 |  |  |  | 6.2 | 96.6 | 2.4
7 | O=C(N/N=C/c1cc(C(F)(F)F)ccc1O)c1cccc(F)c1 [Example 437] | 188 to 196 |  |  |  | 9.2 | 97.0 | 100.0
8 | COc1cc(O)c(/C(C)=N/NC(=O)c2cccc(C)c2)c(OC)c1 [Example 585] | 207 to 209 |  |  |  | 6.3 | 86.3 | 62.0
9 | O=C(N/N=C/c1cc(Cl)ccc1O)c1cc(Cl)ccc1Cl [Example 189] | 185 to 188 | 19.2 | 95.9 | 72.7 |  |  | 
10 | Cc1ccc(C(=O)N/N=C/c2c(C(F)(F)F)ccc(Cl)c2O)cc1 [Example 448] | 216 to 218 |  |  |  | 27.1 | 97.5 | 100.0
11 | O=C(N/N=C/c1cc(Cl)cc(Cl)c1O)c1cccc([N+](=O)[O-])c1 [Example 248] | 234 to 237 | 12.4 | 96.3 | 98.0 |  |  | 
12 | O=C(N/N=C/c1cc(Br)cc(F)c1O)c1ccccc1 [Example 410] | 211 to 212 |  |  |  | 1.9 | 97.6 | 95.0
13 | C/C(=N\NC(=O)c1ccccc1O)c1cc(Cl)ccc1O [Example 515] | 298 to 318 |  |  |  | 0 | 97.6 | 47.0
14 | O=C(N/N=C/c1cc(Cl)cc(C(F)(F)F)c1O)c1ccccc1C(F)(F)F [Example 385] | 203 to 204 |  |  |  | 5.4 | 94.6 | 100.0
15 | O=C(N/N=C/c1c(F)ccc(F)c1O)c1ccccc1 [Example 244] | 206 to 207 | 0 | 96.1 | 62.7 |  |  | 
16 | O=C(N/N=C/c1cc(Cl)cc(Br)c1O)c1ccc(C(F)(F)F)cc1 [Example 164] | 250 to 251 | 10.8 | 98.6 | 96.5 |  |  | 
17 | C/C(=N\NC(=O)c1c(C)cccc1O)c1cc(Cl)cc(Cl)c1O [Example 479] | 245 |  |  |  | 0 | 97.5 | 97.0
18 | O=C(N/N=C/c1ccc(Cl)c(Cl)c1O)c1cccc([N+](=O)[O-])c1 [Example 360] | 269 to 271 |  |  |  | 17.6 | 96.9 | 97.0
19 | Cc1cccc(O)c1/C=N/NC(=O)c1ccccc1 [Example 246] | 212 to 213 | 0 | 95.3 | 50.9 |  |  | 
20 | COc1ccc(/C(C)=N/NC(=O)c2ccc(C(F)(F)F)cc2)c(O)c1 [Example 472] | 251 to 252 |  |  |  | 0 | 97.7 | 49.0
21 | C/C(=N\NC(=O)c1ccccc1O)c1cccc([N+](=O)[O-])c1O [Example 525] | 274 to 283 |  |  |  | 5.4 | 97.4 | 78.0
